Experiment [1] concerns the target T1, human NK1 receptor (Homo sapiens, UniProt P25103).
T1 construct: IM-9 human lymphoblasts specifically expressing the NK1 receptor; endogenous in cells; host or cells: IM-9 human lymphoblasts
The experiment in a line: Affinity for the human NK1 receptor on IM-9 human lymphoblasts. The class given is binding. From the text:
(§1) The affinity for the human NK1 and NK2 receptors was studied on IM-9 human lymphoblasts specifically expressing the NK1 receptor as described by D. G. Payan et al. (J. Biol. Chem. 1986, 261, 14321-14329) and on CHO-K1 cells transfected with the NK2 receptor according to the CellPhect transfection kit (Pharmacia).

Experiment [2] has as its target T2, NK2 receptors (Oryctolagus cuniculus, UniProt P79218).
T2 construct: the rabbit pulmonary artery without endothelium (RPA); from tissue; host or cells: rabbit pulmonary artery without endothelium
T2 sequence (P79218 1-384): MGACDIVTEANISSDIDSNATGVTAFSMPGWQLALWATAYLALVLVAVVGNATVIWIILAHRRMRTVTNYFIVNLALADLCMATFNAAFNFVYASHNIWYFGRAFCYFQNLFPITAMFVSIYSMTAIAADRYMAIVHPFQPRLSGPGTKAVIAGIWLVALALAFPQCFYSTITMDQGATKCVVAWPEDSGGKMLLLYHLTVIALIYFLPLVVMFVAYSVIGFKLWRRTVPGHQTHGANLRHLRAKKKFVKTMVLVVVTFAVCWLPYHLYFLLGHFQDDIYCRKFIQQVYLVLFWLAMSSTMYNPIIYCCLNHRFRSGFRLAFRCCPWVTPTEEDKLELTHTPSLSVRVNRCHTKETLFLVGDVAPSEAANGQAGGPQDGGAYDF
Put plainly: Isolated smooth muscle: rabbit pulmonary artery without endothelium (RPA) contraction, antagonist pA2. The class given is biochemical. An excerpt: (§2) In order to evaluate the functional activity of the compounds of the invention as neurokinin antagonists, two isolated preparations of smooth muscle were used: the rabbit vena cava (RVC) and the rabbit pulmonary artery without endothelium (RPA), the contractile responses of which are mediated, respectively, by the NK1 and NK2 receptors as shown by D. Jukic et al. (Life Sci. 1991, 49, 1463-1469).
(§3) The antagonist power of the compounds of the invention was expressed in the form of pA2 as defined by O. Arunlakshana and H. O. Schild (Brit. J. Pharmacol. 1959, 14, 48-58).

For experiment [3], the target named is T3, human NK2 receptor (Homo sapiens, UniProt P21452).
T3 construct: expressed in transfected cells; host or cells: CHO-K1
T3 sequence (P21452 1-398): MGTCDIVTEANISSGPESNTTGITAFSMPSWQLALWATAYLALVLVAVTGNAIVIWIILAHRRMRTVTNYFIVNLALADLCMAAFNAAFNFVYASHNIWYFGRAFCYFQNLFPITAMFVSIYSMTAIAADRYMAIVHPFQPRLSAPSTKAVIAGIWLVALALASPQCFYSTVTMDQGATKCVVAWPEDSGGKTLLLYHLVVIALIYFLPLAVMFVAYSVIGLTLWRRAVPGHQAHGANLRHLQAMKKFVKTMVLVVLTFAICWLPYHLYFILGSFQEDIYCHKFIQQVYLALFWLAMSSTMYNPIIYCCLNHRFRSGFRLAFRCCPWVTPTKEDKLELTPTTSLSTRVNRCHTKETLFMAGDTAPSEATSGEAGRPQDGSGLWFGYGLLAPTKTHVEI
Put plainly: Affinity for the human NK2 receptor on transfected CHO-K1 cells. The note with it: CHO-K1 cells transfected with the NK2 receptor. Type of experiment: binding.
Excerpt: as §1

For experiment [4], the system named is substance P-induced bronchoconstriction. Put plainly: Inhibition of substance P-induced bronchoconstriction in guinea pigs. The class given is in vivo. As for the experimental part:
The study is carried out on male Hartley guinea pigs (Charles River) weighing 300 to 400 g on average. The study is carried out on anesthetized (ethyl carbamate 1.5 g/kg) and Flaxedilcurarized (0.2 mg/kg iv) animals ventilated at a rate of 60 per minute and a volumetric flow of 10ml/kg. The animals are pretreated with pyrilamine (1 mg/kg iv) and propranolol (1 mg/kg iv).
The criterion of judgment of bronchoconstriction is the increase in tracheal insufflation pressure (TIP) induced by the iv injection of substance P at a dose of 2 nM/kg iv, each animal being its own control. Injection of the test product is performed with reference to the time TO of the injection of the product.
The results are expressed as a dose inhibiting substance P-induced bronchoconstriction by 50%, this percentage being calculated according to the following formula: (ΔTIP before product-ΔTIP after product)/ΔTIP before product (expressed as a percentage).

In experiment [5] the target is T4, NK1 receptors (Oryctolagus cuniculus, UniProt G1SEI7).
T4 construct: two isolated preparations of smooth muscle were used: the rabbit vena cava (RVC); from tissue; host or cells: rabbit vena cava
T4 sequence (G1SEI7 1-407): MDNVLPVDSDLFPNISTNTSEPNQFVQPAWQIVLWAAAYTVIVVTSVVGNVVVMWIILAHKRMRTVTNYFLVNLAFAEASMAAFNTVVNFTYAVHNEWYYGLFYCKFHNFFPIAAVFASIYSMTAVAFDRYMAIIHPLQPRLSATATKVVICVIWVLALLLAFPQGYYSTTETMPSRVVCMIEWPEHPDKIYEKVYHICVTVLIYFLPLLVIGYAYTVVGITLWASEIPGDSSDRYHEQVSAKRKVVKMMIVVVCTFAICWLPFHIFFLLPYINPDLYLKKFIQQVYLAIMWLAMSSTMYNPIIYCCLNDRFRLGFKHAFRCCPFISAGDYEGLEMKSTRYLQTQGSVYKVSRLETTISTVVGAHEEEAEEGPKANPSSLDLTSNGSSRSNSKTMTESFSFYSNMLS
The experiment in a line: Isolated smooth muscle: rabbit vena cava (RVC) contraction, antagonist pA2. Type of experiment: biochemical.
Excerpt: as §2, §3

Experiment [6] concerns capsaicin-induced plasma extravasation. Put plainly: Inhibition of capsaicin-induced plasma extravasation in guinea pig bronchi. Type of experiment: in vivo, guinea pigs. The note with it: iv 5 minutes before capsaicin 200 μg/kg iv, Evans blue. As for the experimental part:
The effect of the compounds on the plasma extravasation caused by intravenous injection of capsaicin (200 μg/kg) in guinea pigs was evaluated in the bronchi according to the method described by Robineau et al (Eur. J. Pharmacol., 1995, 294, 677-684). The accumulation in the bronchi of Evans blue injected IV 1 minute before capsaicin was quantified by spectrophotometry after extraction of the dye with acetone. The inhibitory activity of the compounds via the intravenous route 5 minutes before capsaicin was expressed as a 50% inhibitory dose in comparison to a control group (8 animals per group).

The structures appear in SMILES notation.

We go through one compound from patent US5708016A, “Pseudopeptides derived from neurokinins” (Adir et Compagnie, priority 1996, dated 1998).

T1 sequence (P25103 whole entry): as the sequence (G1SEI7 1-407) above, with F12S, D189N, A369P, E371D, N376T, G386C, N391D, Y402S, M405V counted along it

Take `O=C(OCc1cc(C(F)(F)F)cc(C(F)(F)F)c1)[C@H](Cc1c[nH]c2ccccc12)NC(=O)[C@@H]1C[C@@H](O)CN1C(=O)c1cn(CCCCc2nnn[nH]2)c2ccccc12.[K]` [Example 1, {1-[4-(1H-Tetrazol-5-yl)butyl]-3-indolyl}carbonyl-Hyp-Trp-OBzl(3,5-ditrifluoromethyl) potassium salt]: the results for the Ki in experiment [1] and in experiment [3] were 0.0024 µM and 4.2 µM, respectively. Further, the “pA2 in relation to the NK2 receptors” value in experiment [2] amounted to 5.2. For the same compound, the “ED50, dose inhibiting substance P-induced bronchoconstriction by 50%” value in experiment [4] (anesthetized guinea pigs, substance P 2 nM/kg iv, tracheal insufflation pressure) came to 0.06 mg/kg. Besides, the “Potency relative to compound of Example 1 of Patent EP 684,257” value in experiment [4] (substance P-induced bronchoconstriction, guinea pigs) is “two and a half times as potent”. In addition, in experiment [5], the “pA2 in relation to the NK1 receptors” value is on record as 8.9. Further, in experiment [6], the “ED50, inhibition of capsaicin-induced plasma extravasation” value was determined as 0.026 mg/kg.
